Earlier results in patent publication US20020015956A1, “Compositions and methods for the identification, assessment, prevention, and therapy of human cancers” (priority 2000, published 2002).

Test system: tumor
Settings: animal models

In the case of `CC(=O)O[C@@]12CO[C@@H]1C[C@H](O)[C@@]1(C)C(=O)[C@H](O)C3=C(C)[C@@H](OC(=O)[C@H](O)[C@@H](NC(=O)OC(C)(C)C)c4ccccc4)C[C@@](O)([C@@H](OC(=O)c4ccccc4)[C@H]21)C3(C)C` [Taxotere, docetaxel], the anti-tumor activity is given as “good anti-tumor activity”.
